Here are results for 21 compounds from US20260297042A1, “BIARYLAMIDE DERIVATIVES AND THEIR USE AS PKMYT1 INHIBITORS” (CANCER RESEARCH TECHNOLOGY LIMITED, priority 2023, published 2026).

For test [1], the target named is T1, Human PKMYT1 (Homo sapiens, UniProt Q99640).
T1 construct: Human PKMYT1 75-362 was cloned as a TEV cleavable 6xHis fusion; 6xHis (TEV cleavable) (cleaved yes); made in house; host or cells: bacterial cells
T1 sequence (Q99640 75-362): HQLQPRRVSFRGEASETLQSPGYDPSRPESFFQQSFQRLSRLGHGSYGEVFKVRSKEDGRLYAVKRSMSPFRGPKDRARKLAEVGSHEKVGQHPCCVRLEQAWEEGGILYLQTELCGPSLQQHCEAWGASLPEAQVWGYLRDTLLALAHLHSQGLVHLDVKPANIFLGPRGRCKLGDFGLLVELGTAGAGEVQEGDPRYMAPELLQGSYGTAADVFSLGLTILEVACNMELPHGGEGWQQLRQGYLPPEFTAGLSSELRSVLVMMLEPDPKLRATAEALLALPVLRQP
Put plainly: PKMYT1 biochemical ADP-Glo enzymatic assay. The conditions noted are these: ADP-Glo; 15 nM PKMYT1 kinase domain, 500 µM ATP, 60 minutes at 26° C.; banded. Put shortly:
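Measures inhibition of PKMYT1 autonomous ATP hydrolysis: bacterially expressed human enzyme (75-362, tag cleaved) at 15 nM with 500 µM ATP for 60 min at 26 °C, then ADP-Glo Max detection. IC50s accepted only when replicates agreed within 3-fold and curve r2 exceeded 0.9.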
(In general: ADP-Glo first removes unused ATP, then detects ADP through luciferase.)

The target of test [2] is T2, WEE1 (Homo sapiens, UniProt P30291).
T2 construct: purchased Thermo Fisher PR7373A
T2 sequence (P30291 whole entry): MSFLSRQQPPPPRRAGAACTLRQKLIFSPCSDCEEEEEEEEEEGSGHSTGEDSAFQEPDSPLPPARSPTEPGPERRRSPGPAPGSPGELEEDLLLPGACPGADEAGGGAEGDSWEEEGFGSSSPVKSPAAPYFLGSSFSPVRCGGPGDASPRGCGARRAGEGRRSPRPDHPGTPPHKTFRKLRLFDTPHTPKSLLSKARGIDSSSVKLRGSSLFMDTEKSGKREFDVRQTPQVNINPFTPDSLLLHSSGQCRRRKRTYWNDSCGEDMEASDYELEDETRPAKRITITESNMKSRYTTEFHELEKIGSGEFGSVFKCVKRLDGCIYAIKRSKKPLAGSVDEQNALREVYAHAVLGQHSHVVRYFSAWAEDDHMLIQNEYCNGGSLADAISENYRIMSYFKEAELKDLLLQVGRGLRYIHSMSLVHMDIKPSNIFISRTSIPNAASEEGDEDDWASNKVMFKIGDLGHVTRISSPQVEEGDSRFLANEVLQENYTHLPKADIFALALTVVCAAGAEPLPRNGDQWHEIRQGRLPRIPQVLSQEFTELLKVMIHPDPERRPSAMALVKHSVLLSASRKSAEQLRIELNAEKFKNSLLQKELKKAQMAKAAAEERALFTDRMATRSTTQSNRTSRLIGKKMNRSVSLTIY
The experiment in a line: Selectivity versus WEE1 assay (ADP-Glo enzymatic assay). The class given is biochemical. The conditions noted are these: banded; for IC50: ADP-Glo, 15 nM WEE1, 60 minutes at 26° C.; for PKMYT1 vs. WEE1 selectivity: fold difference in selectivity for PKMYT1 over WEE1, ">N" = at least in this band but could be higher. On the procedure:
Selectivity versus WEE1 assay: Selectivity was established using the same format as outlined for PKMYT1. After dosing of compounds via the Echo acoustic dispenser—as described above—WEE1 (Thermo Fisher PR7373A) was added to each well at a final concentration of 15 nM in a buffer of 50 mM HEPES (pH 7.5), 10 mM MgCl2, 1 mM EGTA, 0.01% Brij-35, 1% DMSO. 30 µM ATP was added to start the reaction with the final assay volume being 4 μl. The plate was then incubated for 60 minutes at 26° C. before the addition of 4 μl of ADP-Glo Reagent. Following a further 60 minute incubation the assay signal was developed by the addition of 8 μl ADP-Glo Detection Reagent. After 60 minutes the luminescence signal was read on a PHERAStar FS microplate reader (BMG Labtech).
Data analysis: Data was captured and analysed within the Dotmatics Studies software module where dose response curves were generated and IC50 values determined. Acceptance and verification of data followed strict in-house business rules which are summarised as follows. […] Technical and biological replicates of each compound are routinely tested and replicate IC50 values must fall within 3-fold of each other with dose response curves showing ‘goodness of fit’ r2 values >0.9. Failure to meet any of these defined criteria result in rejection of data.

Where a name gives a salt, the structure may show the parent alone. Bounds are passed on as bounds.

In general, IC50 refers to the concentration that inhibits the measured activity by half. Read a high IC50 as a need for much substance. Take `Cc1ccc(O)c(C)c1NC(=O)c1cnc(Nc2ccn([C@H]3CCNC3)n2)s1` [BAA-057, N-(3-hydroxy-2,6-dimethyl-phenyl)-2-[1-[(3S)-pyrrolidin-3-yl]pyrazol-3-yllamino]thiazole-5-carboxamide (hydrochloride)]: the IC50 in test [1] fell in the range of 1 to 11 µM. In addition, in test [2], the 50% inhibitory concentration (IC50) was greater than 11 µM and the “PKMYT1 vs. WEE1 selectivity” value was “>W (10-<100 fold)”.

With `Cc1ccc(O)c(C)c1NC(=O)c1cnc(Nc2ccn(CCCC(=O)O)n2)s1` [BAA-058, 4-[3-[[5-[(3-Hydroxy-2,6-dimethyl-phenyl)carbamoyl]thiazol-2-yl]amino]pyrazol-1-yl]butanoic acid], in test [1], the IC50 is less than 0.05 µM. In test [2], the IC50 was greater than 11 µM and the “PKMYT1 vs. WEE1 selectivity” value is “X (100-<1000 fold)”.

`Cc1ccc(O)c(C)c1NC(=O)c1cnc(Nc2ccn(CC(=O)O)n2)s1` [BAA-059, 2-[3-[[5-[(3-hydroxy-2,6-dimethyl-phenyl)carbamoyl]thiazol-2-yl]amino]pyrazol-1-yl]acetic acid]: the IC50 in test [1] is less than 0.05 µM. Besides, in test [2], the IC50 was greater than 11 µM and the “PKMYT1 vs. WEE1 selectivity” value is “X (100-<1000 fold)”.

As to `CCNc1ncc(C(=O)Nc2c(C)ccc(O)c2C)s1` [BAA-060, 2-(ethylamino)-N-(3-hydroxy-2,6-dimethyl-phenyl)thiazole-5-carboxamide], in test [1], the IC50 fell in the range of 0.05 to 1 µM. Besides, in test [2], the half-maximal inhibitory concentration (IC50) was greater than 11 µM and the “PKMYT1 vs. WEE1 selectivity” value was “>X (100-<1000 fold)”.

Take `Cc1ccc(O)c(C)c1NC(=O)c1cnc(NCCO)s1` [BAA-062, N-(3-hydroxy-2,6-dimethyl-phenyl)-2-(2-hydroxyethylamino)thiazole-5-carboxamide]: the IC50 in test [1] is 1 to 11 µM; in test [2], greater than 11 µM. Besides, in test [2], the “PKMYT1 vs. WEE1 selectivity” value is reported as “>W (10-<100 fold)”.

For the compound `COCCNc1ncc(C(=O)Nc2c(C)ccc(O)c2C)s1` [BAA-063, N-(3-hydroxy-2,6-dimethyl-phenyl)-2-(2-methoxyethylamino)thiazole-5-carboxamide], the values for the IC50 in test [1] and in test [2] were 1 to 11 µM and greater than 11 µM, respectively. Further, the “PKMYT1 vs. WEE1 selectivity” value in test [2] is listed as “>W (10-<100 fold)”.

In test [1], `Cc1ccc(O)c(C)c1NC(=O)c1cnc(NCCCN2CCOCC2)s1` [BAA-065, N-(3-hydroxy-2,6-dimethyl-phenyl)-2-(3-morpholinopropylamino)thiazole-5-carboxamide] registered an IC50 of 0.05 to 1 µM. In test [2], the half-inhibitory concentration (IC50) was greater than 11 µM and the “PKMYT1 vs. WEE1 selectivity” value is “>X (100-<1000 fold)”.

On to `Cc1ccc(O)c(C)c1NC(=O)c1cnc(NCC2CCN(C(=O)OC(C)(C)C)CC2)s1` [BAA-066], for which the IC50 in test [1] was 0.05 to 1 µM; in test [2] it was greater than 11 µM. For the same compound, the “PKMYT1 vs. WEE1 selectivity” value in test [2] is “>X (100-<1000 fold)”.

`Cc1ccc(O)c(C)c1NC(=O)c1cnc(NC2CCN(S(C)(=O)=O)CC2)s1` [BAA-067, N-(3-hydroxy-2,6-dimethyl-phenyl)-2-[(1-methylsulfonyl-4-piperidyl)amino]thiazole-5-carboxamide] came in with a half-maximal inhibitory concentration (IC50) in test [1] of 1 to 11 µM. Besides, in test [2], the half-maximal inhibitory concentration (IC50) is greater than 11 µM and the “PKMYT1 vs. WEE1 selectivity” value was “>W (10-<100 fold)”.

Take `Cc1ccc(O)c(C)c1NC(=O)c1cnc(NCCNC(=O)OC(C)(C)C)s1` [BAA-068, tert-butyl N-[2-[5-[(3-hydroxy-2,6-dimethyl-phenyl)carbamoyl]thiazol-2-yllamino]ethyl]carbamate]: the concentration for half-maximal inhibition (IC50) in test [1] is 0.05 to 1 µM; in test [2] it was greater than 11 µM. The “PKMYT1 vs. WEE1 selectivity” value in test [2] was “>X (100-<1000 fold)”.

In the case of `Cc1ccc(O)c(C)c1NC(=O)c1cnc(NCCCN2CCS(=O)(=O)CC2)s1` [BAA-072, 2-[3-(1,1-dioxo-1,4-thiazinan-4-yl)propylamino]-N-(3-hydroxy-2,6-dimethyl-phenyl)thiazole-5-carboxamide], the 50% inhibitory concentration (IC50) in test [1] was in the range of 0.05 to 1 µM. Besides, in test [2], the IC50 was greater than 11 µM and the “PKMYT1 vs. WEE1 selectivity” value is on record as “>X (100-<1000 fold)”.

In test [1], `Cc1ccc(O)c(C)c1NC(=O)c1cnc(NCCCN2CCN(C(=O)OC(C)(C)C)CC2)s1` [BAA-073, tert-butyl 4-[3-[[5-[(3-hydroxy-2,6-dimethyl-phenyl)carbamoyl]thiazol-2-yl]amino]propyl]piperazine-1-carboxylate] returned a half-maximal inhibitory concentration (IC50) of 0.05 to 1 µM. Moreover, in test [2], the IC50 is greater than 11 µM and the “PKMYT1 vs. WEE1 selectivity” value was “>X (100-<1000 fold)”.

In turn, `CCC(=O)NCCCNc1ncc(C(=O)Nc2c(C)ccc(O)c2C)s1` [BAA-076, N-(3-hydroxy-2,6-dimethyl-phenyl)-2-[3-(propanoylamino)propylamino]thiazole-5-carboxamide] registered a half-maximal inhibitory concentration (IC50) in test [1] of 1 to 11 µM. In test [2], the IC50 was greater than 11 µM and the “PKMYT1 vs. WEE1 selectivity” value is “>W (10-<100 fold)”.

Compound `CCC(=O)N1CCC(CNc2ncc(C(=O)Nc3c(C)ccc(O)c3C)s2)CC1` [BAA-077, N-(3-hydroxy-2,6-dimethyl-phenyl)-2-[(1-propanoyl-4-piperidyl)methylamino]thiazole-5-carboxamide] yielded an IC50 in test [1] of 0.05 to 1 µM. For the same compound, in test [2], the IC50 was greater than 11 µM and the “PKMYT1 vs. WEE1 selectivity” value is given as “>X (100-<1000 fold)”.

In the case of `Cc1ccc(O)c(C)c1NC(=O)c1cnc(NCCC(=O)N2CCOCC2)s1` [BAA-078, N-(3-hydroxy-2,6-dimethyl-phenyl)-2-[(3-morpholino-3-oxo-propyl)amino]thiazole-5-carboxamide], the IC50 in test [1] was 0.05 to 1 µM; in test [2], greater than 11 µM. In test [2], the “PKMYT1 vs. WEE1 selectivity” value is reported as “>X (100-<1000 fold)”.

For the compound `Cc1ccc(O)c(C)c1NC(=O)c1cnc(NCC2CCNCC2)s1` [BAA-079, N-(3-hydroxy-2,6-dimethyl-phenyl)-2-(4-piperidylmethylamino)thiazole-5-carboxamide hydrochloride], the IC50 was 1 to 11 µM in test [1] and greater than 11 µM in test [2]. Also, in test [2], the “PKMYT1 vs. WEE1 selectivity” value is on record as “>W (10-<100 fold)”.

Consider `Cc1ccc(O)c(C)c1NC(=O)c1cnc(Nc2ccn([C@@H]3CCN(C(=O)C(C)(C)C)C3)n2)s1` [BAA-080, 2-[[1-[(3R)-1-(2.2-Dimethylpropanoyl)pyrrolidin-3-yl]pyrazol-3-yl]amino]-N-(3-hydroxy-2,6-dimethyl-phenyl)thiazole-5-carboxamide], for which the 50% inhibitory concentration (IC50) in test [1] lay within 0.05 to 1 µM. Besides, in test [2], the concentration for half-maximal inhibition (IC50) is greater than 11 µM and the “PKMYT1 vs. WEE1 selectivity” value is given as “>X (100-<1000 fold)”.

On to `Cc1ccc(O)c(C)c1NC(=O)c1cnc(Nc2ccn([C@@H]3CCN(C(=O)CC(C)(C)C)C3)n2)s1` [BAA-081, 2-[[1-[(3R)-1-(3,3-dimethylbutanoyl)pyrrolidin-3-yl]pyrazol-3-yl]amino]-N-(3-hydroxy-2,6-dimethyl-phenyl)thiazole-5-carboxamide], for which the half-maximal inhibitory concentration (IC50) in test [1] is 0.05 to 1 µM; in test [2], greater than 11 µM. Moreover, the “PKMYT1 vs. WEE1 selectivity” value in test [2] is listed as “>X (100-<1000 fold)”.

`Cc1ccc(O)c(C)c1NC(=O)c1cnc(Nc2ccn([C@@H]3CCN(C(=O)C4CCOCC4)C3)n2)s1` [BAA-082]: the IC50 in test [1] was 0.05 to 1 µM; in test [2], greater than 11 µM. Moreover, the “PKMYT1 vs. WEE1 selectivity” value in test [2] was “>X (100-<1000 fold)”.

With `Cc1ccc(O)c(C)c1NC(=O)c1cnc(Nc2ccn([C@@H]3CCN(C(=O)Cc4ccccc4)C3)n2)s1` [BAA-083], the IC50 is 0.05 to 1 µM in test [1] and greater than 11 µM in test [2]. For the same compound, the “PKMYT1 vs. WEE1 selectivity” value in test [2] was “>Y (1000-5000 fold)”.

`Cc1ccc(O)c(C)c1NC(=O)c1cnc(Nc2ccn([C@@H]3CCN(C(=O)CC(F)(F)F)C3)n2)s1` [BAA-084] displayed a 50% inhibitory concentration (IC50) in test [1] of 0.05 to 1 µM. Besides, in test [2], the IC50 is greater than 11 µM and the “PKMYT1 vs. WEE1 selectivity” value is “>Y (1000-5000 fold)”.
